These results are taken from publication PMC10010335, “Depletion of Mannose Receptor–Positive Tumor-associated Macrophages via a Peptide-targeted Star-shaped Polyglutamate Inhibits Breast Cancer Progression in Mice” (Cancer Research Communications, 2022).

Where a SMILES comes first, the peptide text is derived from it. Where no end group is shown, it is not given here. The star is where a group is joined. 5FAM = O=C1OC2(c3ccc(O)cc3Oc3cc(O)ccc32)c2ccc(C(=O)*)cc21; Ahx = NCCCCCC(=O)O

The subject of data set [1] is primary human M2-resembling (MCSF + IL4 polarized) macrophages. The data set can be described thus: In vitro cytotoxicity (MTT), M2-resembling macrophages. In kind it is cell-based. The settings on record: 15-minute incubation at 33 and 100 μmol/L DOX, washed, 48 hours, N = 3 wells. How it is done: Human peripheral blood mononuclear cells (PBMC) were purified from human blood buffy coat using Ficoll Paque Plus (GE Healthcare, catalog no. 17-1440-02) reagent and CD14^+ microbeads (MACS Miltenyi Biotec, catalog no. 130-050-201) as described previously ([42]). A total of 1.2 × 10^5 cells in 50 μL of RPMI1640 medium were seeded on an FBS-coated 96-well plate. To obtain optimal macrophage attachment and M2 resembling, 50 μL of IL4 (50 ng/mL, BioLegend, catalog no. 574002) and MCSF (50 ng/mL, BioLegend, catalog no. 574802) mixture was added to the wells. The medium was replenished by substituting half of the medium with fresh medium containing IL4 and MCSF every other day for 6 days. To obtain M1-resembling macrophages, monocytes were incubated with M-CSF (50 ng/mL) for 6 days, replenishing every other day with fresh medium containing MCSF and on day 6, 50 μL of MCSF, lipopolysaccharide (LPS, 100 ng/mL, Sigma-Aldrich, catalog no. L4391) and IFNγ (20 ng/mL, BioLegend, catalog no. 570202) was added and incubated overnight. […] After incubation, wells were washed, fresh medium added, and cells incubated for 48 hours at 37°C. […] Absorbance was read at 580 nm using a plate reader (Tecan Sunrise) and the corresponding Magellan 7 program. […] After that, cells were washed 2× with 200 μL of RB and read using BD Accuri 6 plus (BD Biosciences). […]

Data set [2] relates to orthotopic TNBC (4T1 cells). The data set can be described thus: OximUNO treatment of orthotopic TNBC. Type of data set: in vivo, Balb/c mice. How it is done:
Two tumor models were used for treatment studies: the orthotopic TNBC model where 5 × 10^4 4T1 cells in 50 μL of PBS were injected subcutaneously into fourth mammary fat pad; and the experimental metastasis of TNBC model where 2 × 10^5 4T1-GFP cells in 100 μL of PBS were intravenously injected.
A total of 5 × 10^4 4T1 cells in 50 μL of PBS were subcutaneously injected into the fourth mammary fat pad of 8–12 weeks old female Balb/c mice. On day 7, mice were sorted into four groups by tumor volume measured using a digital caliper (Mitutoyo). Tumor volume was calculated on the basis of the formula (W^2 × L)/2, where W is the tumor's width and L is the tumor's length. […] Mouse bodyweight and tumor volumes were monitored every other day. […] CD206 was detected using rat anti-mouse CD206 (dilution 1/200), CD8 using rat anti-mouse CD8 (dilution 1/75 BioLegend, catalog no. 100701), FOXP3 using rat anti-mouse FOXP3 (dilution 1/75, BioLegend, catalog no. 126401) as primary antibodies, Alexa Fluor goat anti-rat 647 (dilution 1/300 for CD206 and 1/200 for CD8, FOXP3,) was used as a secondary antibody for all markers. […]
For H&E staining, 2-μm–thick sections were cut from paraffin-embedded blocks. […] Images were analyzed using the QuPath program (version 0.1.2; ref. [52]). […] Stained heart sections were also scanned using a slide scanner and analysed with the QuPath program. […]

The conditions of data set [3]: cited from earlier work. From the text:
On the basis of these ante ...

The conditions of data set [4]: same mice strain, sex, age; cited from earlier work.

With `COc1cccc2c1C(=O)c1c(O)c3c(c(O)c1C2=O)C[C@@](O)(C(=O)CO)C[C@@H]3O[C@H]1C[C@H](N)[C@H](O)[C@H](C)O1` [DOX, doxorubicin], the “toxicity (MTT cell viability)” value in data set [1] was “only displayed toxicity in MCSF + IL4 polarized macrophages at 100 μmol/L”. Further, the “CD206 expression in primary tumor” value in data set [2] (IF, compared with PBS) is on record as “upregulated CD206 expression”. Moreover, in data set [2] (i.p., 2 mg/kg of DOX every other day, nine injections), the mouse bodyweight result is given as “significant decrease in mouse bodyweight”.
For the molecule `C[C@H](NC(=O)CNC(=O)[C@@H]1CCCN1C(=O)[C@H](CO)NC(=O)[C@H](CS)NC(=O)CCCCCNC(=O)c1ccc2c(c1)C(=O)OC21c2ccc(O)cc2Oc2cc(O)ccc21)C(=O)N[C@@H](CCCCN)C(=O)O` [FAM-mUNO] ({5FAM-Ahx}-CSPGAK-OH), the “degradation of FAM coupled through an amide bond, in serum” value in data set [3] is listed as “negligible degradation”.
Regarding CSPGAK-OH [mUNO], the “half-life, intraperitoneal versus intravenous administration” value in data set [4] was “substantially longer half-life”.
